In paper PMC6696147, “Broad-Spectrum Antiviral Natural Products from the Marine-Derived Penicillium sp. IMB17-046” (Molecules, 2019):
Values after ≈ are worked out from the molar mass of the structure shown. Where two headings read alike, the source gives them in different places.

Assays:
HIV-1 = assay: microbe, parasite or virus in culture; type: cell-based; conditions: Human immunodeficiency virus 1, SUP-T1, 48 h, read-out: HIV-1 IC50
in vitro [1] = conditions: human
in vitro [2] = conditions: human; remark: listed apart in the source
HCV = assay: Anti-HCV assay; type: cell-based; conditions: Hepatitis C virus
Description: Anti-HCV assays were carried out as described previously.

[3] = Cytotoxicity assay (MTT), uninfected Huh7.5 cells; type: cell-based; conditions: human, read-out: HCV CC50
Description: Cytotoxicity of compounds were assayed for the uninfected 293T-Gluc, SupT1, and Huh7.5 cells. 293T-Gluc and Huh7.5 cells were cultured in Dulbecco’s modified Eagle’s medium supplemented with 10% fetal bovine serum (FBS, Invitrogen). SupT1 cells were cultured in RPMI1640 medium supplemented with 10% FBS. Various concentrations of test compounds (1 μL each well) were added to the 293T-Gluc and SupT1 cells (1 × 10^5 cells/well) in 96-well plates. After incubation at 37 °C for 48 h, 10 μL of CCK-8 reagent was added to the cells and they were incubated for another 4 h. Then, the absorbance of each well was recorded at 450 nm. A cytotoxicity assay for Huh7.5 cells was carried out using the MTT method as described previously.

Helicobacter pylori = assay: Antibacterial assay, broth micro-dilution MIC, H. pylori; type: cell-based; conditions: for MIC: Helicobacter pylori; for H. pylori MIC, range over strains: clinically isolated H. pylori, strains G27 and 159 together
Description: (§1) The antibacterial activities against H. pylori, S. aureus, B. subtilis, P. aeruginosa, and K. pneumonia were assayed by examining the MIC using the broth micro-dilution method as previously described.

[4] = test system: wild-type and multi-drug resistant HIV-1; set-up: method as in doi:10.1007/s11426-018-9283-3; conditions: cited from earlier work
Staphylococcus aureus = assay: Antibacterial assay, broth micro-dilution MIC, S. aureus; type: cell-based; conditions: read-out: MIC against Staphylococcus aureus
Description: as §1

Bacillus subtilis = assay: Antibacterial assay, broth micro-dilution MIC, B. subtilis; type: cell-based; conditions: read-out: MIC against Bacillus subtilis
Description: as §1

Pseudomonas aeruginosa = assay: Antibacterial assay, broth micro-dilution MIC, P. aeruginosa; type: cell-based; conditions: read-out: MIC against Pseudomonas aeruginosa
Description: as §1

Klebsiella pneumoniae = assay: Antibacterial assay, broth micro-dilution MIC, K. pneumoniae; type: cell-based; conditions: read-out: MIC against Klebsiella pneumoniae
Description: as §1

[5] = drug-resistant strain 159, read-out: H. pylori MIC, 159
[6] = drug-sensitive strain G27, read-out: H. pylori MIC, G27

For `C=C(CC[C@@H](C)[C@H]1CC=C2C3=C(CC[C@@]21C)[C@@]1(C)CC[C@H](O)CC1CC3=O)C(C)C` (stereo partly drawn) [Compound 3, 3β-hydroxyergosta-8,14,24(28)-trien-7-one], the IC50 (HIV-1) was 3.5 ± 0.8 µM.
`CC(C)[C@@H](C)/C=C/[C@@H](C)[C@H]1CC[C@H]2C3=C[C@@H](O)[C@@]4(O)C[C@@H](O)CC[C@]4(C)[C@H]3CC[C@]12C` [Compound 8, (22E,24R)-24-methyl-5α-cholesta-7,22-dien-3β,5,6β-triol] showed an IC50 (HIV-1) of 6.2 ± 0.2 µM.
In the case of `C=C(CC[C@@H](C)[C@H]1CC[C@H]2C3=C(CC[C@]12C)[C@@]1(C)CC[C@H](O)CC1CC3=O)C(C)C` (stereo partly drawn) [Compound 7, 3β-hydroxyergosta-8,24(28)-dien-7-one], the IC50 (HIV-1) is reported as over 10 µM and the CC50 (in vitro [1]) is reported as over 100 µM.
`NC(=O)c1ncn([C@@H]2O[C@H](CO)[C@@H](O)[C@H]2O)n1` [Ribavirin, reference compound] gave a CC50 (in vitro [2]) of over 100 µM.
With `CCC[C@H](NC(=O)[C@@H]1[C@H]2CCC[C@H]2CN1C(=O)[C@@H](NC(=O)[C@@H](NC(=O)c1cnccn1)C1CCCCC1)C(C)(C)C)C(=O)C(=O)NC1CC1` [VX-950, reference compound] the IC50 (HCV) was 0.05 ± 0.03 µM and the CC50 [3] was 25.8 ± 3.4 µM.
In the case of `O=C1Nc2ccc(Cl)cc2[C@@](C#CC2CC2)(C(F)(F)F)O1` [Efavirenz, reference compound], the CC50 (in vitro [1]) is reported as over 100 µM.
For `Cc1ncc([N+](=O)[O-])n1CCO` [Metronidazole, reference compound], the MIC (Helicobacter pylori; [5]) was 16 µg/mL (≈ 93.5 µM) and the MIC (Helicobacter pylori; [6]) was 1 µg/mL (≈ 5.84 µM).
In the case of `CC(C)[C@H](C)CC[C@](C)(O)[C@H]1C(=O)C[C@H]2[C@@H]3C(=O)C=C4C[C@@H](O)CC[C@]4(C)[C@H]3CC[C@@]21C` [amotsterol D, (20S,24R)-3β,20-dihydroxyergostan-5(6)-en-7,16-dione], the “effectiveness against HIV-1” value [4] is listed as “low micromolar range”.
Compound `COc1cc(=O)oc(C=CC=CC=CC(C)=CC2(C)OC(C)C(C)(O)C2O)c1C` (single isomer, unassigned; (+)) [Compound 2, (+)-neocitreoviridin] has an IC50 (HIV-1) of over 10 µM, an MIC (Helicobacter pylori; [5]) of 1 µg/mL (≈ 2.48 µM) and an MIC (Helicobacter pylori; [6]) of 4 µg/mL (≈ 9.94 µM). For the same compound, the “H. pylori MIC, range over strains” value (Helicobacter pylori) was 1 to 16 µg/mL, the MIC (Staphylococcus aureus) was over 128 µg/mL and the MIC (Bacillus subtilis) was over 128 µg/mL. The MIC (Pseudomonas aeruginosa) was over 128 µg/mL, the MIC (Klebsiella pneumoniae) was over 128 µg/mL and the CC50 (in vitro [1]) was over 100 µM.
Work on `CC[C@H](C)c1nc(OC)c(Cc2c[nH]c3ccccc23)nc1O` [Compound 1, (S)-6-((1H-indol-3-yl)methyl)-3-(sec-butyl)-5-methoxypyrazin-2-ol] yielded an IC50 (HIV-1) of 4.6 ± 0.3 µM, an IC50 (HCV) of 7.7 ± 0.2 µM and a CC50 [3] of 116 ± 4.9 µM. For the same compound, the MIC (Helicobacter pylori; [5]) was 16 µg/mL (≈ 51.4 µM), the MIC (Helicobacter pylori; [6]) was 4 µg/mL (≈ 12.8 µM) and the “H. pylori MIC, range over strains” value (Helicobacter pylori) was 1 to 16 µg/mL. It also gave an MIC (Staphylococcus aureus) of over 128 µg/mL, an MIC (Bacillus subtilis) of over 128 µg/mL and an MIC (Pseudomonas aeruginosa) of over 128 µg/mL. For the same compound, the MIC (Klebsiella pneumoniae) was over 128 µg/mL.
